What was measured:
[1] = biological target: T1, TDO (Homo sapiens, UniProt P48775); test: hTDO biochemical coupled assay; conditions: 330 μM L-tryptophan, read-out: hTDO biochemical assay pIC50 (converted)
[2] = biological target: T2, IDO (Homo sapiens, UniProt P14902); test: hIDO biochemical coupled assay; conditions: 45 μM L-tryptophan, read-out: hIDO biochemical assay pIC50 (converted)
Description: Two different assays were employed: 1. a cell-based assay for detecting the effect of test compounds on kynurenine production in two different cancer cell types. This assay utilised cancer cells which expressed either TDO or IDO and as such was used as a means of testing compound activity at these two enzymes in a cell-based context. 2. a TDO and IDO biochemical coupled assay which utilised recombinantly produced and purified TDO and IDO enzymes in combination with the enzyme formamidase. This coupled enzyme system allowed conversion of N-formylkynurenine produced by TDO or IDO activity to kynurenine which was then quantified by fluorescence following addition of Erhlich's Reagent The protocols for these are set out below.

[3] = biological target: T1, TDO; test: A172 kynurenine cell-based assay; design: This assay utilised cancer cells which expressed either TDO or IDO; endogenous in cells; host or cells: A172 (human glioblastoma); conditions: A172 human glioblastoma cells, 48 hours, read-out: A172 Kynurenine cell based assay pIC50 (converted)
Outline: (§1)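 A172 glioblastoma cells (TDO) or SKOV3 ovarian cells (IDO, induced with 500 ng/ml IFN-γ) were grown in phenol red-free RPMI with 10% FCS, 2 mM L-glutamine and 500 μM L-tryptophan, ± test compound, 48 hours at 37° C. Supernatant kynurenine was measured by absorbance at 490 nm after Erhlich's reagent.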

[4] = biological target: T2, IDO; test: SKOV3 kynurenine cell-based assay (IDO induced by IFN-γ); design: IDO expression was induced in the SKOV3 cells by the addition of 500 ng/ml IFN-γ; endogenous in cells; host or cells: SKOV3 (human ovarian adenocarcinoma), induced with IFN-γ; conditions: 48 hours, read-out: SKOV3 Kynurenine cell based assay pIC50 (converted)
Outline: as §1

[5] = SKOV3 human ovarian adenocarcinoma cells, 500 ng/ml IFN-γ, 500 μM L-tryptophan

T2 sequence (P14902 whole entry): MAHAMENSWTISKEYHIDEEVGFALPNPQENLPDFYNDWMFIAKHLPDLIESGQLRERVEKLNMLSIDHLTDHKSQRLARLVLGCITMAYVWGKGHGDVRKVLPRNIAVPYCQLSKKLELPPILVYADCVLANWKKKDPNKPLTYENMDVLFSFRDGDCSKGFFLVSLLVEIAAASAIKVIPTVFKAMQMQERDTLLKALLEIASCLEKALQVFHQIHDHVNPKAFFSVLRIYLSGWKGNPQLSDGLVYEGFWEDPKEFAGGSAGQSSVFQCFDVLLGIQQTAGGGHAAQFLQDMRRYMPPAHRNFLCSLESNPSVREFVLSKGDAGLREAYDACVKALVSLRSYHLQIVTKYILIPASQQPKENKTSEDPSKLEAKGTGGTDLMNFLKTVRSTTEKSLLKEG
T1 sequence (P48775 whole entry): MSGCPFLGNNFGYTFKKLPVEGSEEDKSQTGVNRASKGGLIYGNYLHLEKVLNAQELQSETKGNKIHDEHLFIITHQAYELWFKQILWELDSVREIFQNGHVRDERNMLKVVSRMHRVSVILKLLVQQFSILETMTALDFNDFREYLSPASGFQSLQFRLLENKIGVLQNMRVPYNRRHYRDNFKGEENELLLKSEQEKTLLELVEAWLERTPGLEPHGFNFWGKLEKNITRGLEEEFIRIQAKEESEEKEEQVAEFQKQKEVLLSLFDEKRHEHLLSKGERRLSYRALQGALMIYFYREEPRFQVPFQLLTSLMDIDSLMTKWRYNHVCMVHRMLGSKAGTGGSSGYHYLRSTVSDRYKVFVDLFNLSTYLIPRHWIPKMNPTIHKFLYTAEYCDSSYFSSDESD

Structure (SMILES) | IC50 ([1]; 17 minutes, room temperature) [µM] | IC50 ([2]; 17 minutes, room temperature) [µM] | IC50 ([3]; 500 μM L-tryptophan) [µM] | IC50 [4, 5] [µM] | IC50 [1] [µM] | IC50 [2] [µM] | IC50 [3] [µM] | IC50 ([4]; SKOV3 cells, IDO induced by 500 ng/ml IFN-γ) [µM]
CS(=O)(=O)NCCN1C(=O)NC2(CCN(c3cc(Cl)cc4[nH]ncc34)CC2)C1=O [Compound 416] | < 3.16 | < 3.16 | < 3.16 | 3.24 to 31.6 | – | – | – | –
Clc1cc(N2CCc3cn[nH]c3C2)c2cn[nH]c2c1 [Compound 417] | < 3.16 | > 100 | < 3.16 | > 100 | – | – | – | –
O[C@H]1CCCC[C@@H]1c1cc(Cl)cc2[nH]ncc12 [Compound 418] | < 3.16 | > 100 | < 3.16 | > 100 | – | – | – | –
O[C@@H]1CCCC[C@@H]1c1cc(Cl)cc2[nH]ncc12 [Compound 419] | < 3.16 | > 100 | < 3.16 | > 100 | – | – | – | –
CC1(C)CN(c2cc(Cl)cc3[nH]ncc23)CCN1CCNS(C)(=O)=O [Compound 420] | < 3.16 | 3.24 to 31.6 | < 3.16 | > 100 | – | – | – | –
CC(=O)NCCN1CCN(c2cc(Cl)cc3[nH]ncc23)CC1(C)C [Compound 421] | < 3.16 | 3.24 to 31.6 | < 3.16 | > 100 | – | – | – | –
O=C1N(c2ccccc2)CNC12CCN(c1cc(Cl)cc3[nH]ncc13)CC2 [Compound 422] | < 3.16 | 3.24 to 31.6 | < 3.16 | < 3.16 | – | – | – | –
CCS(=O)(=O)N1CCC(c2cc(Cl)cc3[nH]ncc23)CC1 [Compound 423] | < 3.16 | < 3.16 | < 3.16 | 3.24 to 31.6 | – | – | – | –
CC1(C)CN(c2cc(Cl)cc3[nH]ncc23)CCC12NC(=O)NC2=O (stereo not shown) [Compound 424, 8-(6-chloro-1H-indazol-4-yl)-6,6-dimethyl-1,3,8-triazaspiro[4.5]decane-2,4-dione] | < 3.16 | < 3.16 | < 3.16 | < 3.16 | 0.24 | 0.347 | 0.0759 | 0.145
Cc1nc2c(o1)CN(c1cc(Cl)cc3[nH]ncc13)CC2(C)C [Compound 425] | < 3.16 | > 100 | < 3.16 | > 100 | – | – | – | –
Clc1cc(C2CCOCC2)c2cn[nH]c2c1 [Compound 426] | < 3.16 | 3.24 to 31.6 | < 3.16 | > 100 | – | – | – | –
CC1(C)CCC(O)(c2cc(Cl)cc3[nH]ncc23)CC1 [Compound 427] | 3.24 to 31.6 | > 100 | < 3.16 | > 100 | – | – | – | –
OC1(c2cc(Cl)cc3[nH]ncc23)CCC(F)(F)CC1 [Compound 428] | < 3.16 | 3.24 to 31.6 | < 3.16 | 3.24 to 31.6 | – | – | – | –
Clc1cc(N2CCC(c3ncco3)CC2)c2cn[nH]c2c1 [Compound 429] | < 3.16 | 3.24 to 31.6 | < 3.16 | 3.24 to 31.6 | – | – | – | –
Nc1ccnn1C1CCN(c2cc(Cl)cc3[nH]ncc23)CC1 [Compound 430] | < 3.16 | < 3.16 | 3.24 to 31.6 | > 100 | – | – | – | –
CS(=O)(=O)NC1CN(c2cc(Cl)cc3[nH]ncc23)C1 [Compound 431] | < 3.16 | < 3.16 | < 3.16 | > 100 | – | – | – | –
Cn1ncc2c1CN(c1cc(Cl)cc3[nH]ncc13)CC2 [Compound 432] | < 3.16 | 3.24 to 31.6 | < 3.16 | > 100 | – | – | – | –
Cn1cc2c(n1)CN(c1cc(Cl)cc3[nH]ncc13)CC2 [Compound 433] | < 3.16 | > 100 | 3.24 to 31.6 | > 100 | – | – | – | –
Cc1nc2c(o1)CN(c1cc(C(F)(F)F)cc3[nH]ncc13)CC2(C)C [Compound 434] | < 3.16 | > 100 | < 3.16 | > 100 | – | – | – | –
CN1C(=O)[C@@H]2CC[C@H]1CN(c1cc(Cl)cc3[nH]ncc13)C2 [Compound 435] | < 3.16 | 3.24 to 31.6 | < 3.16 | > 100 | – | – | – | –
Cn1ccnc1N1CCN(c2cc(Cl)cc3[nH]ncc23)CC1 [Compound 436] | < 3.16 | > 100 | < 3.16 | > 100 | – | – | – | –
